{"source": "ChEMBL document CHEMBL1144736", "about": "“Novel inhibitors of 17beta-hydroxysteroid dehydrogenase type 1: templates for design” (Bioorg Med Chem, 2008)", "type_in_all_cases": "cell-based", "key": {"[1]": {"biological_target": "T1, 17-beta-hydroxysteroid dehydrogenase type 1 (Homo sapiens, UniProt P14061)", "T1 sequence (P14061 whole entry)": "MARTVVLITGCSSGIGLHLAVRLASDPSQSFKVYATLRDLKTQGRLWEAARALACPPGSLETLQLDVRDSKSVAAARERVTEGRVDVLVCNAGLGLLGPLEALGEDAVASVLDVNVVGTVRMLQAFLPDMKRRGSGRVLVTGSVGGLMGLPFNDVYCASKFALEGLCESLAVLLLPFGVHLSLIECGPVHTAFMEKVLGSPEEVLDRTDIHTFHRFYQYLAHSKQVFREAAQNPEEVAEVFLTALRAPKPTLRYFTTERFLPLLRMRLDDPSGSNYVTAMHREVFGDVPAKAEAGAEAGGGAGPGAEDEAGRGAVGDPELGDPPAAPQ", "assay": "Inhibition of 17beta-HSD1 expressed in intact human T47D cells after 30 mins"}, "[2]": {"biological_target": "T2, 17-beta-hydroxysteroid dehydrogenase type 1 (Homo sapiens) (UniProt P14061)", "T2 sequence (whole entry)": "T1 sequence (P14061 whole entry)", "assay": "Inhibition of 17beta-HSD1 expressed in intact human T47D cells at 10 uM after 30 mins"}, "[3]": {"biological_target": "T2, 17-beta-hydroxysteroid dehydrogenase type 1 (Homo sapiens)", "assay": "Inhibition of 17beta-HSD1 expressed in intact human T47D cells at 1 uM after 30 mins"}, "[4]": {"biological_target": "T3, 17-beta-hydroxysteroid dehydrogenase type 2 (Homo sapiens) (UniProt P37059)", "T3 sequence (whole entry)": "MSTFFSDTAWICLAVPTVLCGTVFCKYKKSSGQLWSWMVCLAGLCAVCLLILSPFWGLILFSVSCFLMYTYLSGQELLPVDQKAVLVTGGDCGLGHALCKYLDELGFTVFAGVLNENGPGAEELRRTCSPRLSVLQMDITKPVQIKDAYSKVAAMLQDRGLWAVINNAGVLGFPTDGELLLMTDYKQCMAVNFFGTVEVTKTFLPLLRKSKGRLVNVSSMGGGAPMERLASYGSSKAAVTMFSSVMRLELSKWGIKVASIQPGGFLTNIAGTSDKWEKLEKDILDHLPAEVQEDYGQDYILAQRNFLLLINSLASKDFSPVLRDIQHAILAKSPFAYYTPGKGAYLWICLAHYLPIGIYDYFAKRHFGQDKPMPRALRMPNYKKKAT", "assay": "Inhibition of 17beta-HSD2 expressed in intact human MDA-MB-231 cells at 10 uM after 3 hrs"}}, "note": "Calls of active or inactive are those of the source. The calls are words filed in the database; no cut-off is given here."}
{"smiles": "CCc1cc(-c2ccc3c(c2)CCCC3=O)ccc1OC", "values": [{"measurement": "IC50", "setting": "[1]", "value": 8.3, "unit": "µM"}, {"measurement": "inhibition", "setting": "[2]", "value": 71, "unit": "%"}]}
{"smiles": "CCc1cc(-c2ccc(C(=O)CC(C)(C)C(=O)NCc3cccnc3)cc2)ccc1O", "values": [{"measurement": "IC50", "setting": "[1]", "value": 1.8, "unit": "µM"}, {"measurement": "inhibition", "setting": "[3]", "value": 38, "unit": "%"}]}
{"smiles": "O=C1CCc2cc(-c3ccccc3)ccc21", "values": [{"measurement": "Activity", "setting": "[2]", "value": "inactive"}]}
{"smiles": "O=C1CCCc2cc(-c3ccc(O)cc3)ccc21", "values": [{"measurement": "IC50", "setting": "[1]", "value": 15.6, "unit": "µM"}, {"measurement": "inhibition", "setting": "[2]", "value": 89, "unit": "%"}]}
{"smiles": "CCc1cc(-c2ccc3c(c2)CCC3=O)ccc1OC", "values": [{"measurement": "Activity", "setting": "[2]", "value": "inactive"}]}
{"smiles": "CC(=O)c1ccc2c(c1)Cc1cc(O)ccc1-2", "values": [{"measurement": "IC50", "setting": "[1]", "value": 4.8, "unit": "µM"}, {"measurement": "inhibition", "setting": "[2]", "value": 86, "unit": "%"}]}
{"smiles": "CCc1cc(-c2ccc(C(=O)CCC(=O)NCc3ccccn3)cc2)ccc1O", "values": [{"measurement": "Activity", "setting": "[3]", "value": "inactive"}]}
{"smiles": "CCc1cc(-c2ccc3c(c2)CCCC3=O)ccc1O", "values": [{"measurement": "inhibition", "setting": "[2]", "value": 51, "unit": "%"}]}
{"smiles": "O=C1CCc2cc(-c3ccc(O)c(F)c3)ccc21", "values": [{"measurement": "inhibition", "setting": "[4]", "value": 24, "unit": "%"}, {"measurement": "IC50", "setting": "[1]", "value": 2.9, "unit": "µM"}, {"measurement": "inhibition", "setting": "[2]", "value": 75, "unit": "%"}]}
{"smiles": "COc1ccc(-c2ccc3c(c2)CCC3=O)cc1", "values": [{"measurement": "Activity", "setting": "[2]", "value": "inactive"}]}
{"smiles": "COc1ccc(-c2ccc(C(C)=O)cc2C)cc1", "values": [{"measurement": "Activity", "setting": "[2]", "value": "inactive"}]}
{"smiles": "CC(=O)c1ccc(-c2ccc(O)cc2C)cc1", "values": [{"measurement": "IC50", "setting": "[1]", "value": 3.7, "unit": "µM"}]}
{"smiles": "CCc1cc(-c2ccc(C(=O)CC(C)(C)C(=O)NCc3cccnc3)cc2)ccc1OC", "values": [{"measurement": "inhibition", "setting": "[3]", "value": 17, "unit": "%"}]}
{"smiles": "CC(=O)c1ccc(-c2ccc(O)cc2)cc1", "values": [{"measurement": "IC50", "setting": "[1]", "value": 3.7, "unit": "µM"}, {"measurement": "inhibition", "setting": "[2]", "value": 97, "unit": "%"}]}
{"smiles": "CCc1cc(-c2ccc3c(c2)CC(CC(=O)NCc2cccnc2)C3=O)ccc1O", "note": "(stereo not drawn)", "values": [{"measurement": "IC50", "setting": "[1]", "value": 4.7, "unit": "µM"}, {"measurement": "inhibition", "setting": "[3]", "value": 39, "unit": "%"}]}
{"smiles": "CCc1cc(-c2ccc(C(C)=O)cc2)ccc1O", "values": [{"measurement": "inhibition", "setting": "[4]", "value": 51, "unit": "%"}, {"measurement": "IC50", "setting": "[1]", "value": 5.4, "unit": "µM"}, {"measurement": "inhibition", "setting": "[2]", "value": 73, "unit": "%"}]}
{"smiles": "CCc1cc(-c2ccc3c(c2)CCC3=O)ccc1O", "values": [{"measurement": "inhibition", "setting": "[4]", "value": 48, "unit": "%"}, {"measurement": "IC50", "setting": "[1]", "value": 2, "unit": "µM"}, {"measurement": "inhibition", "setting": "[2]", "value": 86, "unit": "%"}]}
{"smiles": "CCc1cc(-c2ccc(C(=O)CCC(=O)NCCc3cccnc3)cc2)ccc1O", "values": [{"measurement": "inhibition", "setting": "[3]", "value": 17, "unit": "%"}]}
{"smiles": "COc1ccc2c(c1)Cc1cc(C(C)=O)ccc1-2", "values": [{"measurement": "Activity", "setting": "[2]", "value": "inactive"}]}
{"smiles": "COc1ccc(-c2ccc(C(C)=O)cc2)c(C)c1", "values": [{"measurement": "Activity", "setting": "[2]", "value": "inactive"}]}
{"smiles": "CCc1cc(-c2ccc(C(=O)CCC(=O)NCc3cccnc3)c(C)c2)ccc1O", "values": [{"measurement": "inhibition", "setting": "[3]", "value": 21, "unit": "%"}]}
{"smiles": "COc1ccc(-c2ccc(C(C)=O)cc2)cc1", "values": [{"measurement": "Activity", "setting": "[2]", "value": "inactive"}]}
{"smiles": "CCc1cc2c(cc1O)CC[C@@H]1[C@@H]2CC[C@]2(C)C(=O)[C@@H](CC(=O)NCc3cccnc3)C[C@@H]12", "values": [{"measurement": "IC50", "setting": "[1]", "value": 0.027, "unit": "µM"}]}
{"smiles": "CCc1cc(-c2ccc(C(C)=O)cc2)ccc1OC", "values": [{"measurement": "Activity", "setting": "[2]", "value": "inactive"}]}
{"smiles": "CC(=O)c1ccc(-c2ccc3c(c2)OCO3)cc1", "values": [{"measurement": "Activity", "setting": "[2]", "value": "inactive"}]}
{"smiles": "CCc1cc(-c2ccc(C(=O)CCC(=O)NCCc3cccnc3)c(C)c2)ccc1O", "values": [{"measurement": "inhibition", "setting": "[3]", "value": 15, "unit": "%"}]}
{"smiles": "CCc1cc(-c2ccc(C(=O)CCC(=O)NCCO)cc2)ccc1O", "values": [{"measurement": "inhibition", "setting": "[3]", "value": 23, "unit": "%"}]}
{"smiles": "CCc1cc(-c2ccc(C(=O)CC(C)(C)C(=O)NCCc3cccnc3)cc2)ccc1O", "values": [{"measurement": "inhibition", "setting": "[3]", "value": 15, "unit": "%"}]}
{"smiles": "O=C1CCc2cc(-c3ccc(O)cc3)ccc21", "values": [{"measurement": "inhibition", "setting": "[4]", "value": 17, "unit": "%"}, {"measurement": "IC50", "setting": "[1]", "value": 1.7, "unit": "µM"}, {"measurement": "inhibition", "setting": "[2]", "value": 81, "unit": "%"}]}
{"smiles": "COc1ccc(-c2ccc3c(c2)CCC3=O)cc1F", "values": [{"measurement": "inhibition", "setting": "[2]", "value": 56, "unit": "%"}]}
{"smiles": "COc1ccc(-c2ccc3c(c2)CCCC3=O)cc1", "values": [{"measurement": "Activity", "setting": "[2]", "value": "inactive"}]}
{"smiles": "CCc1cc(-c2ccc3c(c2)CC(CC(=O)NCc2ccccn2)C3=O)ccc1O", "note": "(stereo not drawn)", "values": [{"measurement": "Activity", "setting": "[3]", "value": "inactive"}]}
{"smiles": "CCc1cc(-c2ccc3c(c2)CC(CC(=O)NCc2cnc(C)cn2)C3=O)ccc1O", "note": "(stereo not drawn)", "values": [{"measurement": "Activity", "setting": "[3]", "value": "inactive"}]}
{"smiles": "CCc1cc(-c2ccc(C(=O)CCC(=O)NCc3cccnc3)cc2)ccc1O", "values": [{"measurement": "inhibition", "setting": "[4]", "value": 12, "unit": "%"}, {"measurement": "IC50", "setting": "[1]", "value": 3.7, "unit": "µM"}, {"measurement": "inhibition", "setting": "[3]", "value": 24, "unit": "%"}]}
{"smiles": "CCc1cc(-c2ccc(O)cc2)ccc1C(C)=O", "values": [{"measurement": "IC50", "setting": "[1]", "value": 9.9, "unit": "µM"}, {"measurement": "inhibition", "setting": "[2]", "value": 71, "unit": "%"}]}
{"smiles": "CC(=O)c1ccc(-c2ccc(O)cc2)c(C)c1", "values": [{"measurement": "Activity", "setting": "[2]", "value": "inactive"}]}
